Data as given in patent publication US10538555B2, “Macrocyclic inhibitors of the PD-1/PD-L1 and CD80(B7-1)/PD-L1 protein/protein interactions” (BRISTOL-MYERS SQUIBB COMPANY, priority 2014, dated 2020).
pIC50: −log10 of the molar value. Where a SMILES comes first, the peptide text is derived from it. Bridges are numbered along the chain shown (N, C = ends). [ ]: non-standard residue; d: D form. ξ: configuration not given here. Trp(1-CH2COOH) = N[C@@H](Cc1cn(CC(=O)O)c2ccccc12)C(=O)O; Phe(3,4,5-F3) = N[C@@H](Cc1cc(F)c(F)c(F)c1)C(=O)O; d(cisHyp) = O=C(O)[C@H]1C[C@@H](O)CN1; Bta = N[C@@H](Cc1csc2ccccc12)C(=O)O; NMeY = CN[C@@H](Cc1ccc(O)cc1)C(=O)O; Hyp = O=C(O)[C@@H]1C[C@@H](O)CN1; NMeF = CN[C@@H](Cc1ccccc1)C(=O)O; NMeNle = CCCC[C@H](NC)C(=O)O; Pip = O=C(O)[C@@H]1CCCCN1; hSer = N[C@@H](CCO)C(=O)O; NMeA = CN[C@@H](C)C(=O)O; Dab = NCC[C@H](N)C(=O)O; Dap = NC[C@H](N)C(=O)O; ξC = NC(CS)C(=O)O

Molecular target: T1, Human PD-L1/PD-1 (Homo sapiens, UniProt Q9NZQ7)
T1 construct: TVMV protease cleavage site (C); made in house; host or cells: HEK293T cells
Assay: HTRF Human PD-L1/PD-1 binding assay (PD-1-Ig/PD-L1-His)
Details: PD-L1-His 10 nM, PD-1-Ig 20 nM; class symbol; read-out: HTRF Human PD-L1/PD-1 Binding Assay IC50 Range
Outline: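 Compound preincubated 15 min with PD-L1-His (10 nM final), then PD-1-Ig (20 nM final) added for 15 min in dPBS with 0.1% BSA and 0.05% Tween-20. Detection by Eu-cryptate anti-Ig (1 nM) and APC anti-His (20 nM) after 30 min; 665/620 nm HTRF ratio. Proteins expressed in HEK293T.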

T1 sequence (Q9NZQ7 with tags, fused parts or gaps): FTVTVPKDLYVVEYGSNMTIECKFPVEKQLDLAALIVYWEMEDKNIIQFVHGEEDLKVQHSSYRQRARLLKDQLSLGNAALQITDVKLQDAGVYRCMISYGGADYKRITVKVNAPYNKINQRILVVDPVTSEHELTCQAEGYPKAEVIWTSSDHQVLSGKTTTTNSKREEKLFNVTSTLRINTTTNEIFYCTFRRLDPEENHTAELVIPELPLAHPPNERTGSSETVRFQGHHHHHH

With `CCCC[C@H]1C(=O)N(C)[C@@H](CCCC)C(=O)N[C@@H](CN)C(=O)N[C@H](C(=O)NCC(N)=O)CSCC(=O)N[C@@H](Cc2ccc(O)cc2)C(=O)N(C)[C@@H](C)C(=O)N[C@@H](CC(N)=O)C(=O)N2CCC[C@H]2C(=O)N[C@@H](CN)C(=O)N[C@@H](CCC(N)=O)C(=O)N2C[C@H](O)C[C@H]2C(=O)N[C@@H](Cc2c[nH]c3ccccc23)C(=O)N[C@@H](CO)C(=O)N[C@@H](Cc2cn(CC(=O)O)c3ccccc23)C(=O)N1C` [Example 5253] ({CH2CO}-Y[NMeA]NP[Dap]Q[Hyp]WS[Trp(1-CH2COOH)][NMeNle][NMeNle][Dap]CG-NH2; thioether N-14) the pIC50 was 8.00 to 9.00.
`CCCC[C@H]1C(=O)N2CCC[C@@H]2C(=O)N[C@@H](CC(=O)O)C(=O)N[C@@H](C(C)C)C(=O)N(C)[C@@H](Cc2ccccc2)C(=O)N[C@@H](CCC(=O)O)C(=O)N2C[C@H](O)C[C@@H]2C(=O)N[C@@H](Cc2c[nH]c3ccccc23)C(=O)N[C@@H](Cc2ccc(O)cc2)C(=O)N[C@@H](CCC(=O)O)C(=O)N[C@H](C(=O)NCC(N)=O)CSCC(=O)N[C@@H](Cc2cc(F)c(F)c(F)c2)C(=O)N(C)[C@@H](Cc2ccc(O)cc2)C(=O)N1C` [Example 10633] ({CH2CO}-[Phe(3,4,5-F3)][NMeY][NMeNle][dP]DV[NMeF]E[d(cisHyp)]WYECG-NH2; thioether N-13) showed a pIC50 of 7.00 to 8.00.
In the case of `CCCC[C@H]1C(=O)N(C)[C@@H](CCCC)C(=O)N[C@@H](CCC(=O)O)C(=O)N[C@H](C(=O)NCC(N)=O)CSCC(=O)N[C@@H](Cc2ccc(OC)cc2)C(=O)N(C)[C@@H](C)C(=O)N[C@@H](CC(=O)O)C(=O)N2CCC[C@H]2C(=O)N[C@@H](Cc2cnc[nH]2)C(=O)N[C@@H](CCC(=O)O)C(=O)N2C[C@H](O)C[C@H]2C(=O)N[C@@H](Cc2c[nH]c3ccccc23)C(=O)N[C@@H](CC(=O)O)C(=O)N[C@@H](Cc2c[nH]c3ccccc23)C(=O)N1C` [Example 7125] ({CH2CO}-Y(Me)[NMeA]DPHE[Hyp]WDW[NMeNle][NMeNle]ECG-NH2; thioether N-14), the pIC50 was 7.00 to 8.00.
`CCCC[C@H]1C(=O)N(C)[C@@H](CCCC)C(=O)N[C@@H](CCC(=O)O)C(=O)N[C@H](C(=O)NCC(N)=O)CSCC(=O)N[C@@H](Cc2ccc(O)cc2)C(=O)N(C)[C@@H](C)C(=O)N[C@@H](CC(=O)O)C(=O)N2CCC[C@H]2C(=O)N[C@@H](CN)C(=O)N[C@@H](CCC(=O)O)C(=O)N2C[C@H](O)C[C@H]2C(=O)N[C@@H](Cc2c[nH]c3ccccc23)C(=O)N[C@@H](CCN)C(=O)N[C@@H](Cc2c[nH]c3ccccc23)C(=O)N1C` [Example 5224] ({CH2CO}-Y[NMeA]DP[Dap]E[Hyp]W[Dab]W[NMeNle][NMeNle]ECG-NH2; thioether N-14) was tested, and the pIC50 was 8.00 to 9.00.
`CCCC[C@H]1C(=O)N(C)[C@@H](CCCC)C(=O)N[C@@H](CCCNC(=N)N)C(=O)NC(C(=O)NCC(N)=O)CSCC(=O)N[C@@H](Cc2ccc(O)cc2)C(=O)N(C)[C@@H](C)C(=O)N[C@@H](CC(N)=O)C(=O)N2CCC[C@H]2C(=O)N[C@@H](CCO)C(=O)N[C@@H](CCO)C(=O)N2CCC[C@H]2C(=O)N[C@@H](Cc2c[nH]c3ccccc23)C(=O)N[C@@H](CO)C(=O)N[C@@H](Cc2csc3ccccc23)C(=O)N1C` (stereo partly drawn) [Example 10019] ({CH2CO}-Y[NMeA]NP[hSer][hSer]PWS[Bta][NMeNle][NMeNle]R[ξC]G-NH2; thioether N-14) showed a pIC50 of 7.00 to 8.00.
With `CCCC[C@H]1C(=O)N(C)[C@@H](CCCC)C(=O)N[C@@H](CN)C(=O)N[C@H](C(=O)NCC(N)=O)CSCC(=O)N[C@@H](Cc2ccc(O)cc2)C(=O)N2CCCC[C@H]2C(=O)N[C@@H](CC(N)=O)C(=O)N2CCC[C@H]2C(=O)N[C@@H](CN)C(=O)N[C@@H](CCC(=O)O)C(=O)N2C[C@H](O)C[C@H]2C(=O)N[C@@H](Cc2c[nH]c3ccccc23)C(=O)N[C@@H](CO)C(=O)N[C@@H](Cc2cn(CC(=O)O)c3ccccc23)C(=O)N1C` [Example 1300] ({CH2CO}-Y[Pip]NP[Dap]E[Hyp]WS[Trp(1-CH2COOH)][NMeNle][NMeNle][Dap]CG-NH2; thioether N-14) the pIC50 was 8.00 to 9.00.
